Reference: the supplement of paper PMC10307832

Assays:
Experiment in all cases: relative viability (nuclei count vs DMSO), 5 days (fraction); higher = more cells survive
AZ3146 + Bortezomib = compound: CN1CCC(CC1)OC2=CC(=C(C=C2)NC3=NC=C4C(=N3)N(C(=O)N4C)C5CCCC5)OC [AZ3146] + CC(C)C[C@H](NC(=O)[C@H](Cc1ccccc1)NC(=O)c1cnccn1)B(O)O [Bortezomib] (partner 0.002 µM)
In short: (§1)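 Lung cancer cell lines were pin-tool dosed in 1536-well plates on the day after seeding, with either a lone drug or a fixed anchor-drug dose plus five library-drug doses (not always all listed) in √10 steps. Nuclei were counted on 4× images after 5 days. Relative viability is the ratio of treated-well to vehicle-well nuclei counts, with each value a median of duplicate plates.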

AZ3146 + Palbociclib = compound: CN1CCC(CC1)OC2=CC(=C(C=C2)NC3=NC=C4C(=N3)N(C(=O)N4C)C5CCCC5)OC [AZ3146] + CC(=O)c1c(C)c2cnc(Nc3ccc(N4CCNCC4)cn3)nc2n(C2CCCC2)c1=O [Palbociclib] (partner 0.5 µM)
In short: as §1

AZ3146 + AZD7762 = compound: CN1CCC(CC1)OC2=CC(=C(C=C2)NC3=NC=C4C(=N3)N(C(=O)N4C)C5CCCC5)OC [AZ3146] + NC(=O)Nc1cc(-c2cccc(F)c2)sc1C(=O)N[C@H]1CCCNC1 [AZD7762] (partner 0.2 µM)
In short: as §1

GSK-J4 + Alpelisib = compound: CCOC(=O)CCNc1cc(N2CCc3ccccc3CC2)nc(-c2ccccn2)n1 [GSK-J4] + Cc1nc(NC(=O)N2CCC[C@H]2C(N)=O)sc1-c1ccnc(C(C)(C)C(F)(F)F)c1 [Alpelisib] (partner 2 µM)
In short: as §1

Row | Cell Line | relative viability (AZ3146 + Bortezomib; first compound 0.08 µM) | relative viability (AZ3146 + Bortezomib; first compound 0.253 µM) | relative viability (AZ3146 + Bortezomib; first compound 0.8 µM) | relative viability (AZ3146 + Bortezomib; first compound 2.53 µM) | relative viability (AZ3146 + Bortezomib; first compound 8 µM) | relative viability (AZ3146 + Palbociclib; first compound 0.253 µM) | relative viability (AZ3146 + Palbociclib; first compound 0.8 µM) | relative viability (AZ3146 + Palbociclib; first compound 2.53 µM) | relative viability (AZ3146 + Palbociclib; first compound 8 µM) | relative viability (AZ3146 + AZD7762; first compound 0.253 µM) | relative viability (AZ3146 + AZD7762; first compound 0.8 µM) | relative viability (AZ3146 + AZD7762; first compound 2.53 µM) | relative viability (AZ3146 + AZD7762; first compound 8 µM) | relative viability (GSK-J4 + Alpelisib; first compound 0.5 µM) | relative viability (GSK-J4 + Alpelisib; first compound 1.581 µM) | relative viability (GSK-J4 + Alpelisib; first compound 5 µM) | relative viability (GSK-J4 + Alpelisib; first compound 15.81 µM) | relative viability (GSK-J4 + Alpelisib; first compound 50 µM) | relative viability (AZ3146 + Palbociclib; first compound 0.08 µM) | relative viability (AZ3146 + AZD7762; first compound 0.08 µM)
1 | LU99A | 0.91 | 1.16 | 1.21 | 1.1 | 1.18 | 0.464 | 0.428 | 0.377 | 0.455 | 0.378 | 0.295 | 0.276 | 0.264 | 0.448 | 0.494 | 0.535 | 0.498 | 0.322 |  | 
2 | PC-14 | 0.872 | 0.891 | 0.846 | 0.997 | 0.721 | 0.606 | 0.518 | 0.571 | 0.0919 | 0.355 | 0.415 | 0.382 | 0.294 | 0.916 | 0.909 | 0.946 | 0.873 | 0.913 | 0.524 | 0.343
3 | LC-2-ad | 0.857 | 1.05 | 1.03 | 0.996 | 0.668 | 0.546 | 0.475 | 0.455 | 0.453 | 0.841 | 0.822 | 0.886 | 0.78 | 0.725 | 0.764 | 0.857 | 0.877 | 0.87 | 0.419 | 0.75
4 | NCI-H2126 | 1.07 | 1.11 | 1.09 | 1.09 | 1.08 | 0.33 | 0.375 | 0.333 | 0.339 | 1 | 0.948 | 1.16 | 0.998 | 0.763 | 0.706 | 0.787 | 0.741 | 0.684 | 0.336 | 0.932
